Measurements reported in patent US10131644B2, “Aryl sultam derivatives as RORc modulators” (Genentech, Inc., priority 2014, dated 2018).

These compounds were tested against T1, RORc (Homo sapiens, UniProt P51449) (assay: In vitro RORc ligand binding assay (25-[3H]hydroxycholesterol displacement)). Details: IC50, IC50 values for RORc; unit inferred.
T1 sequence (P51449 269-508 limits assumed): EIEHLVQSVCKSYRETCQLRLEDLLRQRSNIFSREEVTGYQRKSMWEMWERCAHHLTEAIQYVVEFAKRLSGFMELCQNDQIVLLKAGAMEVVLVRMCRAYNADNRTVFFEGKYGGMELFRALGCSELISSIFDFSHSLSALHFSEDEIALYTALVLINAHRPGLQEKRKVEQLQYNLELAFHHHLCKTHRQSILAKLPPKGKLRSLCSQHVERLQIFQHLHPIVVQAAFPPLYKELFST

First: C[C@H]1CC[C@H](c2ccccc2)S(=O)(=O)N1Cc1cc(F)c(C2(OCC(=O)NCCO)COC2)cc1F [Compound 176, 2-[3-[2,5-difluoro-4-[[(3S,6R)-3-methyl-1,1-dioxo-6-phenyl-thiazinan-2-yl]methyl]phenyl]oxetan-3-yl]oxy-N-(2-hydroxyethyl)acetamide]
Second: C[C@H]1CC[C@H](c2ccccc2)S(=O)(=O)N1Cc1cc(F)c(C2(OCC(=O)NCCO)CCOCC2)cc1F [Compound 156, 2-[4-[2,5-difluoro-4-[[(3S,6R)-3-methyl-1,1-dioxo-6-phenyl-thiazinan-2-yl]methyl]phenyl]tetrahydropyran-4-yl]oxy-N-(2-hydroxyethyl)acetamide]
The IC50 of the first is 6.1-fold lower: 2.5 nM for the first, 15.2 nM for the second.

Going from `C[C@H]1CC[C@H](c2ccccc2)S(=O)(=O)N1Cc1ccc(C2(CCO)CCOCC2)cc1F` [Compound 78, 2-[4-[3-fluoro-4-[[(3S,6R)-3-methyl-1,1-dioxo-6-phenyl-thiazinan-2-yl]methyl]phenyl]tetrahydropyran-4-yl]ethanol] to `C[C@H]1CC[C@H](c2ccccc2)S(=O)(=O)N1Cc1ccc(C2(COCCO)CCOCC2)cc1F` [Compound 83, 2-[[4-[3-fluoro-4-[[(3S,6R)-3-methyl-1,1-dioxo-6-phenyl-thiazinan-2-yl]methyl]phenyl]tetrahydropyran-4-yl]methoxy]ethanol], the IC50 rises from 13.7 nM to 46 nM (3.4-fold). The first is the more potent here.

First: C[C@H]1CC[C@H](c2ccccc2)S(=O)(=O)N1Cc1ccc([C@]2(C(=O)O)CC[C@H](n3cnnc3)CC2)cc1 [Example 13, 1-[4-((3S,6R)-3-Methyl-1,1-dioxo-6-phenyl-[1,2]thiazinan-2-ylmethyl)-phenyl]-4-[1,2,4]triazol-4-yl-cyclohexane-carboxylic acid]
Second: C[C@H]1CC[C@H](c2ccccc2)S(=O)(=O)N1Cc1ccc(C2(C(N)=O)CCOCC2)cc1 [Compound 31, 4-[4-((3S,6R)-3-Methyl-1,1-dioxo-6-phenyl-[1,2]thiazinan-2-ylmethyl)-phenyl]-tetrahydro-pyran-4-carboxylic acid amide]
The IC50 of the first is 6.4-fold higher: 2700 nM for the first, 420 nM for the second. The second is the more potent here.

`C[C@H]1CC[C@H](c2ccccc2)S(=O)(=O)N1Cc1ccc([C@]2(C(N)=O)C[C@@H](O)C2)cc1F` [Compound 183, 1-[3-fluoro-4-[[(3S,6R)-3-methyl-1,1-dioxo-6-phenyl-thiazinan-2-yl]methyl]phenyl]-3-hydroxy-cyclobutanecarboxamide] and `C[C@H]1CC[C@H](c2ccccc2)S(=O)(=O)N1Cc1ccc([C@]2(C#N)C[C@H](O)C2)cc1F` [Compound 178, 1-[3-fluoro-4-[[(3S,6R)-3-methyl-1,1-dioxo-6-phenyl-thiazinan-2-yl]methyl]phenyl]-3-hydroxy-cyclobutanecarbonitrile] are within 1.5-fold of each other in IC50: 55.2 nM for the first, 44.1 nM for the second.

First: C[C@H]1CC[C@H](c2ccccc2)S(=O)(=O)N1Cc1cc(F)c(C2(C(=O)O)CCOCC2)cc1F [Compound 96, 4-[2,5-difluoro-4-[[(3S,6R)-3-methyl-1,1-dioxo-6-phenyl-thiazinan-2-yl]methyl]phenyl]tetrahydropyran-4-carboxylic acid]
Second: C[C@H]1CC[C@H](c2ccccc2)S(=O)(=O)N1Cc1cc(F)c(C2(C#N)CCOCC2)cc1F [Compound 122, 4-[2,5-difluoro-4-[[(3S,6R)-3-methyl-1,1-dioxo-6-phenyl-thiazinan-2-yl]methyl]phenyl]tetrahydropyran-4-carbonitrile]
The IC50 of the first is 8-fold higher: 214 nM for the first, 26.8 nM for the second. The second is the more potent here.

`COCCNC(=O)C1(c2ccc(CN3[C@@H](C)CC[C@H](c4ccccc4)S3(=O)=O)c(F)c2)CCOCC1` [Compound 64, 4-[3-fluoro-4-[[(3S,6R)-3-methyl-1,1-dioxo-6-phenyl-thiazinan-2-yl]methyl]phenyl]-N-(2-methoxyethyl)tetrahydropyran-4-carboxamide] and `C[C@H]1CC[C@H](c2ccccc2)S(=O)(=O)N1Cc1ccc(C2(O)CCOCC2)cc1F` [Compound 69, 4-[3-fluoro-4-[[(3S,6R)-3-methyl-1,1-dioxo-6-phenyl-thiazinan-2-yl]methyl]phenyl]tetrahydropyran-4-ol] are within 1.5-fold of each other in IC50: 89 nM for the first, 93 nM for the second.

First: C[C@H]1CC[C@@H](c2ccccc2)S(=O)(=O)N1Cc1cc(F)c([C@]2(O)CC[C@@H](n3cnnc3)CC2)cc1F [Compound 36, 1-[2,5-Difluoro-4-((3S,6S)-3-methyl-1,1-dioxo-6-phenyl-[1,2]thiazinan-2-ylmethyl)-phenyl]-4-[1,2,4]triazol-4-yl-cyclohexanol]
Second: C[C@H]1CC[C@H](c2ccccc2)S(=O)(=O)N1Cc1cc(F)c(C2(CO)CCC(n3cnnc3)CC2)cc1F (stereo partly drawn) [Compound 133, [1-[2,5-difluoro-4-[[(3S,6R)-3-methyl-1,1-dioxo-6-phenyl-thiazinan-2-yl]methyl]phenyl]-4-(1,2,4-triazol-4-yl)cyclohexyl]methanol]
The IC50 of the first is 2.5-fold higher: 13 nM for the first, 5.2 nM for the second. The second is the more potent here.

First: C[C@H]1CC[C@H](c2ccccc2)S(=O)(=O)N1Cc1ccc(C2(CCC(=O)N(C)C)CCOCC2)cc1F [Compound 85, 3-[4-[3-fluoro-4-[[(3S,6R)-3-methyl-1,1-dioxo-6-phenyl-thiazinan-2-yl]methyl]phenyl]tetrahydropyran-4-yl]-N,N-dimethyl-propanamide]
Second: C[C@H]1CC[C@H](c2ccccc2)S(=O)(=O)N1Cc1ccc(C2(CC#N)CCOCC2)cc1F [Compound 77, 2-[4-[3-fluoro-4-[[(3S,6R)-3-methyl-1,1-dioxo-6-phenyl-thiazinan-2-yl]methyl]phenyl]tetrahydropyran-4-yl]acetonitrile]
The IC50 of the first is 3-fold lower: 10.5 nM for the first, 31.2 nM for the second. The first is the more potent here.

Going from `CCOC(=O)/C=C/C1(c2ccc(CN3[C@@H](C)CC[C@H](c4ccccc4)S3(=O)=O)c(F)c2)CC1` [Compound 114, ethyl (E)-3-[1-[3-fluoro-4-[[(3S,6R)-3-methyl-1,1-dioxo-6-phenyl-thiazinan-2-yl]methyl]phenyl]cyclopropyl]prop-2-enoate] to `C[C@H]1CC[C@H](c2ccccc2)S(=O)(=O)N1Cc1ccc(C2(C#N)CC2)cc1F` [Compound 109, 1-[3-fluoro-4-[[(3S,6R)-3-methyl-1,1-dioxo-6-phenyl-thiazinan-2-yl]methyl]phenyl]cyclopropanecarbonitrile], the IC50 rises from 53.6 nM to 116 nM (2.2-fold). The first is the more potent here.

First: C[C@H]1CC[C@H](c2ccccc2)S(=O)(=O)N1Cc1cc(F)c(C2(OCC(=O)N(C)CCO)CCOCC2)cc1F [Compound 157, 2-[4-[2,5-difluoro-4-[[(3S,6R)-3-methyl-1,1-dioxo-6-phenyl-thiazinan-2-yl]methyl]phenyl]tetrahydropyran-4-yl]oxy-N-(2-hydroxyethyl)-N-methyl-acetamide]
Second: C[C@H]1CC[C@H](c2ccccc2)S(=O)(=O)N1Cc1cc(F)c(C2(OCC(O)CO)CCOCC2)cc1F (stereo in doubt) [Compound 170, (2S)-3-[4-[2,5-difluoro-4-[[(3S,6R)-3-methyl-1,1-dioxo-6-phenyl-thiazinan-2-yl]methyl]phenyl]tetrahydropyran-4-yl]oxypropane-1,2-diol]
The IC50 of the first is 4-fold higher: 47.2 nM for the first, 11.7 nM for the second.

Going from `C[C@H]1CC[C@H](c2ccccc2)S(=O)(=O)N1Cc1ccc(C2(N(C)CC(N)=O)CCOCC2)cc1F` [Compound 188, 2-[[4-[3-fluoro-4-[[(3S,6R)-3-methyl-1,1-dioxo-6-phenyl-thiazinan-2-yl]methyl]phenyl]tetrahydropyran-4-yl]-methyl-amino]acetamide] to `C[C@@H](NC1(c2ccc(CN3[C@@H](C)CC[C@H](c4ccccc4)S3(=O)=O)c(F)c2)CCOCC1)C(N)=O` [Compound 180, (2R)-2-[[4-[3-fluoro-4-[[(3S,6R)-3-methyl-1,1-dioxo-6-phenyl-thiazinan-2-yl]methyl]phenyl]tetrahydropyran-4-yl]amino]propanamide], the IC50 falls from 24 nM to 6.7 nM (3.6-fold).

First: C[C@H]1CC[C@H](c2ccccc2)S(=O)(=O)N1Cc1cc(F)c(C2(C#N)CC2)cc1F [Compound 123, 1-[2,5-difluoro-4-[[(3S,6R)-3-methyl-1,1-dioxo-6-phenyl-thiazinan-2-yl]methyl]phenyl]cyclopropanecarbonitrile]
Second: C[C@H]1CC[C@H](c2ccccc2)S(=O)(=O)N1Cc1cc(F)c(C2(O)COC2)cc1F [Compound 192, 3-[2,5-difluoro-4-[[(3S,6R)-3-methyl-1,1-dioxo-6-phenyl-thiazinan-2-yl]methyl]phenyl]oxetan-3-ol]
The IC50 of the first is 8.6-fold higher: 22.7 nM for the first, 2.65 nM for the second.

First: C[C@H]1CC[C@H](c2ccccc2)S(=O)(=O)N1Cc1ccc(OCC2(C#N)CCOCC2)cc1F [Example 6, 4-{3-Fluoro-4-((3S,6R)-3-methyl-1,1-dioxo-6-phenyl-[1,2]thiazinan-2-ylmethyl)-phenoxymethyl]-tetrahydro-pyran-4-carbonitrile]
Second: C[C@H]1CC[C@H](c2ccccc2)S(=O)(=O)N1Cc1ccc(C2(COCCCO)CCOCC2)cc1F [Compound 92, 3-[[4-[3-fluoro-4[[(3S,6R)-3-methyl-1,1-dioxo-6-phenyl-thiazinan-2-yl]methyl]phenyl]tetrahydropyran-4-yl]methoxy]propan-1-ol]
The IC50 of the first is 2.9-fold higher: 220 nM for the first, 75.8 nM for the second.

Compared with `C[C@H]1CC[C@H](c2ccccc2)S(=O)(=O)N1Cc1ccc(C2(C(N)=O)CCC3(CC2)OCCO3)cc1F` [Example 22, 8-[3-Fluoro-4-((3S,6R)-3-methyl-1,1-dioxo-6-phenyl-[1,2]thiazinan-2-ylmethyl)-phenyl]-1,4-dioxa-spiro[4.5]decane-8-carboxylic acid amide], `C[C@H]1CC[C@H](c2ccccc2)S(=O)(=O)N1Cc1ccc(C2(C#N)CC(=O)C2)cc1F` [Compound 162, 1-[3-fluoro-4-[[(3S,6R)-3-methyl-1,1-dioxo-6-phenyl-thiazinan-2-yl]methyl]phenyl]-3-oxo-cyclobutanecarbonitrile] is 2.1-fold higher in IC50: 30 nM for the first, 63.9 nM for the second.

In the case of `C[C@H]1CC[C@H](c2ccccc2)S(=O)(=O)N1Cc1cc(F)c(C2(N)COC2)cc1F` [Compound 190, 3-[2,5-difluoro-4-[[(3S,6R)-3-methyl-1,1-dioxo-6-phenyl-thiazinan-2-yl]methyl]phenyl]oxetan-3-amine], the IC50 is reported as 71.5 nM.
